From patent publication US8912230B2, “Method for treating cell degeneration using at least one molecule capable of inhibiting adhesion molecule expression and vascular endothelium actin fibre polymerization” (Aisa Therapeutics, priority 2004, dated 2014)

Key:
rats = conditions: rat, in vivo; cited from earlier work
C57/BL6 mice = test: Preliminary in vivo toxicity study, blood cell count (Cell Dyn 3500/3700); design: species or system mouse
Procedure: FIGS. 11-25 depict the in vivo toxicity study for the natural and synthetic forms (respectively “NAT” and “SYN”) of geranyl acetate—a molecule called “AISA 5201” and selected for its representativeness of the AISA class—in a mouse model, for blood cell count parameters, at concentrations of 5, 10, 25, and 50 μg/mouse which correspond to non-toxic in vitro concentrations, allowing the desired biological effect to be observed, i.e. the inhibition of endothelial adhesion and endothelial actin polymerisation.
Two methods were used, one with the synthetic form named herein “SYN” (SIGMA catalogue number 173495), and the other with the natural unfiltered form (derived from geranium essential oils treated by HPLC) named herein “NAT”, of said molecule.
On the basis of the in vitro toxicity experiments, the “SYN” and “NAT” molecules were first tested on C57/BL6 mice at concentrations of 10, 25, and 50 μg/mouse, as well as on a control batch which was injected with PBS, either via the IP (intraperitoneal) or retro-orbital (IV) routes. Each batch consisted of 4 animals. A total of 16 animals was used.
Following the experiment, a blood cell count was performed using the Cell Dyn Systems 3500/3700 machine from Abbott Laboratories. This test was carried out to reveal any possible functional alterations. […]

Structure (SMILES) | LD50 (rats) | most appropriate concentration (WBC, NEU, LYM, MONO and PLT values closest to control) (C57/BL6 mice; first experiment, 10, 25, 50 μg/mouse tested) [μg/mouse] | blood cell count (C57/BL6 mice; mouse, in vivo)
CC(=O)OC/C=C(\C)CCC=C(C)C [AISA 5201, (E)-3,7-dimethyl-2,6-octadienyl acetate] | 6,330 mg/kg |  | 
CC(=O)OC/C=C(\C)CCC=C(C)C [NAT, geranyl acetate] |  | 50 | remaining within the values of the standard range
